The target in experiment [1] is T1, PYL9 (with HAB1) (Arabidopsis thaliana, UniProt Q84MC7).
T1 construct: PYL9 from E. coli BL21(DE3), pET-28a or pGEX-4T-2 (TEV site), IMAC and SEC, monomer; HAB1 residues 169-511, GST cut by TEV; with Protein phosphatase 2C 16
T1 sequence (Q84MC7 1-187): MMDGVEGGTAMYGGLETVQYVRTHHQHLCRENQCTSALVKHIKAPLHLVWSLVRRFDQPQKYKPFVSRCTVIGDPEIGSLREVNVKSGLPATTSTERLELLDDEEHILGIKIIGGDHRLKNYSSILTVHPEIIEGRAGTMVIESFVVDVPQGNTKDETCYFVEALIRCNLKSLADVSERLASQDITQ
T1 sequence (Q9CAJ0 169-511 partner): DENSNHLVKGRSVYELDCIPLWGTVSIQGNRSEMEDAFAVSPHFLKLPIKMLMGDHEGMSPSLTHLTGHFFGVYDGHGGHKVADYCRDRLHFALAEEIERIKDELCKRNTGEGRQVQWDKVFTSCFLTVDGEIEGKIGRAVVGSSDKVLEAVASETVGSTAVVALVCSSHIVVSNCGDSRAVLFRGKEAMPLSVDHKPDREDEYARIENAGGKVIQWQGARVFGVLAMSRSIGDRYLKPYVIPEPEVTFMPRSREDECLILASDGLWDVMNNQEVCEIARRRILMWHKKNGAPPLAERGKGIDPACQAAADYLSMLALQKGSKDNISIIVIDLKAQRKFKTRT
Description: HAB1 phosphatase inhibition assay. It counts as biochemical. The following applies: Hepes pH 7.5, 30 °C.

Experiment [2] addresses T2, PYL10 (with HAB1) (Arabidopsis thaliana, UniProt Q8H1R0).
T2 construct: PYL10 from E. coli BL21(DE3), pET-28a or pGEX-4T-2 (TEV site), IMAC and SEC; HAB1 residues 169-511, GST cut by TEV; with Protein phosphatase 2C 16
T2 sequence (Q8H1R0 1-183): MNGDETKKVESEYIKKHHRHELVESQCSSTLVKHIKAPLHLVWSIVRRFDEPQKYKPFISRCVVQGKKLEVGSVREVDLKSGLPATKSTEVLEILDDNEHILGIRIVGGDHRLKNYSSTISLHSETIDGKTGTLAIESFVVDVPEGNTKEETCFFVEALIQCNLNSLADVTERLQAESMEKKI
T2 sequence (Q9CAJ0 169-511 partner): T1 sequence (Q9CAJ0 169-511 partner)
Nature of the experiment: HAB1 phosphatase inhibition assay (phosphopeptide, molybdate). Format: biochemical.

The target in experiment [3] is T3, PYL6 (with HAB1) (Arabidopsis thaliana, UniProt Q8S8E3).
T3 construct: PYL6 from E. coli BL21(DE3), pET-28a or pGEX-4T-2 (TEV site), IMAC and SEC; HAB1 residues 169-511, GST cut by TEV; with Protein phosphatase 2C 16
T3 sequence (Q8S8E3 1-215): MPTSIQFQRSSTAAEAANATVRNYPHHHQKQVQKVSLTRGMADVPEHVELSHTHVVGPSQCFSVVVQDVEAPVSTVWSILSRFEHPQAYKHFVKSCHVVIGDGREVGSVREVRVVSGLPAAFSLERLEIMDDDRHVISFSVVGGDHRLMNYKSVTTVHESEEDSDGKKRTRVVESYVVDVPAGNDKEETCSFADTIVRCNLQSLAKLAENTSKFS
T3 sequence (Q9CAJ0 169-511 partner): T1 sequence (Q9CAJ0 169-511 partner)
The description is as above. It counts as biochemical.

Experiment [4] concerns the target T4, PYL5 (with HAB1) (Arabidopsis thaliana, UniProt Q9FLB1).
T4 construct: PYL5 from E. coli BL21(DE3), pET-28a or pGEX-4T-2 (TEV site), IMAC and SEC, monomer; HAB1 residues 169-511, GST cut by TEV; with Protein phosphatase 2C 16
T4 sequence (Q9FLB1 1-203): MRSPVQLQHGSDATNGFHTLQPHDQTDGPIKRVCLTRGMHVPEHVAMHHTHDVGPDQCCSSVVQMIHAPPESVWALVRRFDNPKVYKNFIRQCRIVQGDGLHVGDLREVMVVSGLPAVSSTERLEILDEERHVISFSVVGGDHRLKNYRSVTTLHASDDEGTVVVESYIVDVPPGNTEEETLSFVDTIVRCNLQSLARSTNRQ
T4 sequence (Q9CAJ0 169-511 partner): T1 sequence (Q9CAJ0 169-511 partner)
The experiment is described as above. It counts as biochemical.

Experiment [5] has as its target T5, PYL3 (Arabidopsis thaliana, UniProt Q9SSM7).
T5 construct: apo mainly dimer
T5 sequence (Q9SSM7 1-209): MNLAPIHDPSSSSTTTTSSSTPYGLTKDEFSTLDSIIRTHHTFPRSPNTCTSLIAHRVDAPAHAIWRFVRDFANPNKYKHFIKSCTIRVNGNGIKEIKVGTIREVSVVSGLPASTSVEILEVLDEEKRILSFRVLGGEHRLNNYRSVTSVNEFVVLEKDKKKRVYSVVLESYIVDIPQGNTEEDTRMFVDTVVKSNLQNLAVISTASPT
Description: isothermal titration calorimetry. Format: binding. The following applies: 20 °C, 20 mM Tris-HCl pH 8.0, 150 mM NaCl; 0.3 mM (−)-ABA into 0.22 mM PYL3. (ITC needs no label: the signal is the heat of the interaction.)

The target of experiment [6] is T6, PYL1 (with HAB1) (Arabidopsis thaliana, UniProt Q8VZS8).
T6 construct: PYL1 from E. coli BL21(DE3), pET-28a or pGEX-4T-2 (TEV site), IMAC and SEC; HAB1 residues 169-511, GST cut by TEV; with Protein phosphatase 2C 16
T6 sequence (Q8VZS8 2-221): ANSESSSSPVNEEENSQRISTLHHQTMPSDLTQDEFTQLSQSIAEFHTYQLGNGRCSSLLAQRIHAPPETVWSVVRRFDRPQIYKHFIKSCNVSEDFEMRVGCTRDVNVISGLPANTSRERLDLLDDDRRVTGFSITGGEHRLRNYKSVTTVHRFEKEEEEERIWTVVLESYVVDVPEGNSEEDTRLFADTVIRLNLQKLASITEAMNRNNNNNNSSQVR
T6 sequence (Q9CAJ0 169-511 partner): T1 sequence (Q9CAJ0 169-511 partner)
Nature of the experiment: HAB1 phosphatase inhibition assay (phosphopeptide, molybdate). It counts as biochemical.

For experiment [7], the target named is T7, PYL2 (with HAB1) (Arabidopsis thaliana, UniProt O80992).
T7 construct: PYL2 from E. coli BL21(DE3), pET-28a or pGEX-4T-2 (TEV site), IMAC and SEC; HAB1 residues 169-511, GST cut by TEV; with Protein phosphatase 2C 16
T7 sequence (O80992 1-190): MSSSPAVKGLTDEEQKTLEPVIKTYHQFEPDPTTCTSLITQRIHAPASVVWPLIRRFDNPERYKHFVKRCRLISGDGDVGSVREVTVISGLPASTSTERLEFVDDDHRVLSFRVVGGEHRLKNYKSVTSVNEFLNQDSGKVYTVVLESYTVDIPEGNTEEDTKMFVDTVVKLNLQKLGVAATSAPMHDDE
T7 sequence (Q9CAJ0 169-511 partner): T1 sequence (Q9CAJ0 169-511 partner)
The experiment is described as above. Format: biochemical.

Experiment [8] has as its target T8, PYL4 (with HAB1) (Arabidopsis thaliana, UniProt O80920).
T8 construct: PYL4 from E. coli BL21(DE3), pET-28a or pGEX-4T-2 (TEV site), IMAC and SEC; HAB1 residues 169-511, GST cut by TEV; with Protein phosphatase 2C 16
T8 sequence (O80920 1-207): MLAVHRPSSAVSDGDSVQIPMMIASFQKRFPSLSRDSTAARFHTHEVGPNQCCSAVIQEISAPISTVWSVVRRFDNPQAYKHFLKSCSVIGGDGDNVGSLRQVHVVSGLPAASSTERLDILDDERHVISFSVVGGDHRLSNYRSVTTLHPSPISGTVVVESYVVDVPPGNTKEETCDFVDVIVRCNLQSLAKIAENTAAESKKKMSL
T8 sequence (Q9CAJ0 169-511 partner): T1 sequence (Q9CAJ0 169-511 partner)
The experiment is described as above. It counts as biochemical.

In experiment [9] the target is T9, PYR1 (with HAB1) (Arabidopsis thaliana, UniProt O49686).
T9 construct: PYR1 from E. coli BL21(DE3), pET-28a or pGEX-4T-2 (TEV site), IMAC and SEC; HAB1 residues 169-511, GST cut by TEV; with Protein phosphatase 2C 16
T9 sequence (O49686 1-191): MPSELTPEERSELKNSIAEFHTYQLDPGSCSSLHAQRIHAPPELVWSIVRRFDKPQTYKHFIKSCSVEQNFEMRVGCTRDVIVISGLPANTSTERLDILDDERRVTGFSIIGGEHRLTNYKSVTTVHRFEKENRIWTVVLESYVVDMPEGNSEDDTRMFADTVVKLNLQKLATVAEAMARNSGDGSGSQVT
T9 sequence (Q9CAJ0 169-511 partner): T1 sequence (Q9CAJ0 169-511 partner)
The experiment is described as above. Format: biochemical.

In experiment [10] the target is T1, PYL9 (with HAB1). Described as above. It counts as biochemical.
Experiment [11] has as its target T10, PYL8 (with HAB1) (Arabidopsis thaliana, UniProt Q9FGM1).
T10 construct: PYL8 from E. coli BL21(DE3), pET-28a or pGEX-4T-2 (TEV site), IMAC and SEC; HAB1 residues 169-511, GST cut by TEV; with Protein phosphatase 2C 16
T10 sequence (Q9FGM1 1-188): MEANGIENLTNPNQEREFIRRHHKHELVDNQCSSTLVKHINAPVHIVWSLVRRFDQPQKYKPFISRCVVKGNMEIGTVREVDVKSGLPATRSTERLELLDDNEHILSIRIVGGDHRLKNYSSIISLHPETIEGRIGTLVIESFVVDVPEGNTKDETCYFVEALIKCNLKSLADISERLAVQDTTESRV
T10 sequence (Q9CAJ0 169-511 partner): T1 sequence (Q9CAJ0 169-511 partner)
Described as above. It counts as biochemical.

As to `CC1=CC(=O)CC(C)(C)[C@@]1(O)/C=C/C(C)=C/C(=O)O` [(+)-ABA], the “HAB1 phosphatase inhibition assay” value in [1] is “PYL9 can inhibit HAB1 in the presence of (+)-ABA”.
For the compound `CC1=CC(=O)CC(C)(C)[C@]1(O)/C=C/C(C)=C\C(=O)O` [(−)-ABA], the IC50 came to 15000 nM in [2]; 470 nM in experiment [3]; 170 nM in experiment [4]; 3100 nM in [6]; 2500 nM in experiment [7]; 480 nM in [8]. Moreover, the IC50 is 4500 nM in experiment [9], > 10000 nM in experiment [10] and 1600 nM in experiment [11]. In addition, the binding affinity entry in experiment [5] is “ITC results showed that the binding affinity of (−)-ABA to PYL3 was less”.

The term IC50 denotes the concentration that inhibits the measured activity by half. Read a high IC50 as lower potency.
